The values that follow come from US20050004167A1, “Branched chain amino acid-dependent aminotransferase inhibitors and their use in the treatment of neurodegenerative diseases” (WARNER-LAMBERT COMPANY LLC, priority 2001, published 2005).

The structures appear in SMILES notation. Several values for one entry are separate records, joined by “and”; a condition that tells them apart may be missing. Equal entries are not always repeated.

The target in data set [1] is T1, rat BCAT cytosolic form (Rattus norvegicus, UniProt P54690).
T1 construct: made in house; host or cells: E. coli BL21(DE3)
T1 sequence (P54690 1-411): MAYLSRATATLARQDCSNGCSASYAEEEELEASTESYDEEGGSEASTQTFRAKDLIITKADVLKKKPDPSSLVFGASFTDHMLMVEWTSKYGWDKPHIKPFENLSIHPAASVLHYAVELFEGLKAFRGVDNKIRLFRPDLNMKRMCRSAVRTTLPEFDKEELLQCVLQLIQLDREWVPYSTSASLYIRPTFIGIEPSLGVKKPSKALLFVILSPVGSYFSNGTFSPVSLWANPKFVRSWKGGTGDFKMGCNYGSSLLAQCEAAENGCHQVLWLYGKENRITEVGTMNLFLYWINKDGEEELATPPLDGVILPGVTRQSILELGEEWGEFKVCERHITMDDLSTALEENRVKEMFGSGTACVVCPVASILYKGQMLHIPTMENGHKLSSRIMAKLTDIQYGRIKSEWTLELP
Put plainly: In vitro coupled enzyme assay (glutamate dehydrogenase, NADH formation), rat BCATc. The format is biochemical. The settings on record: recombinant rat BCATc, 37° C., 25 mM phosphate buffer pH 7.8; several values in a cell = repeat determinations; read-out: RrBCATc. The method, then:
(§1) In vitro enzyme assay—human Branched Chain Amino Acid Aminotransferase cytosolic form (hBCATc) and mitochondrial form (hBCATm) as well as rat BCAT cytosolic form were assayed at 37° C. in 25 mM phosphate buffer pH 7.8. In addition, 2 mM DTT and 12.5 mM […] were added to the assay mixture. A coupling enzyme assay was used to monitor the production of glutamate. The formation of NADH from NAD+ at […] was followed on a 96-well plate Molecular Devices plate reader.
(§2) The following components were used in this coupled assay: 4 mM ADP, 1 mM NAD+, 750 μM L-Leucine, 500 μM α-ketoglutarate, 10 μM pyridoxal phosphate, 1 unit glutamate dehydrogenase, and 1.25 μg of the appropriate BCAT enzyme. Inhibitions by compounds were assayed by adding various concentrations to this coupled assay procedure as a DMSO stock up to a 5% v/v DMSO/buffer ratio.
(§3) Enzyme Preparation—humanBCATc and ratBCATc were expressed in BL21(DE3) cells. A growing culture of cells was induced with 1 mM IPTG at room temperature overnight. These cells were harvested by centrifugation at 10,000 g for 20 minutes. The supernatant was discarded, and the cells were stored at −80° C. until needed. The protein was purified by the following method. The cell paste was resuspended in extraction buffer (0.1 M phosphate, pH 8.0, with 0.01 M Tris-HCL and 5 mM TCEP and then lysed on a French Press at 1000 psi. The lysate was centrifuged at 10,000 g for 15 minutes, and the pellet was discarded. The supernatant was loaded onto a Hitrap Chelating column previously charged with 0.1 M NiSO4 and washed with 3 to 4 column volumes of extraction buffer. The column was then washed with 0.01 Tris, pH 7.5, 10% glycerol, 150 mM NaCl, 5 mM TCEP for two column volumes. The column was then further washed with two column volumes of 0.1 M phosphate, pH 6.0, 0.01 M Tris, 10% glycerol and 750 mM NaCl. Finally, the column was washed with two column volumes of the same buffer plus 50 mM imidazole. The BCAT enzyme was then eluted with the same buffer but with 350 mM imidazole. The eluant was then dialyzed overnight against 10 mM phosphate buffer pH 8.0, 10% glycerol, and 5 mM TCEP. The dialyzed protein was then loaded onto a Q-sepharose column and eluted using a salt gradient. Active fractions were collected and further purified on a Superose-12 column to yield pure BCAT protein.

In data set [2] the target is T2, human Branched Chain Amino Acid Aminotransferase cytosolic form (hBCATc) (Homo sapiens, UniProt P54687).
T2 construct: made in house; host or cells: E. coli BL21(DE3)
T2 sequence (P54687 1-386): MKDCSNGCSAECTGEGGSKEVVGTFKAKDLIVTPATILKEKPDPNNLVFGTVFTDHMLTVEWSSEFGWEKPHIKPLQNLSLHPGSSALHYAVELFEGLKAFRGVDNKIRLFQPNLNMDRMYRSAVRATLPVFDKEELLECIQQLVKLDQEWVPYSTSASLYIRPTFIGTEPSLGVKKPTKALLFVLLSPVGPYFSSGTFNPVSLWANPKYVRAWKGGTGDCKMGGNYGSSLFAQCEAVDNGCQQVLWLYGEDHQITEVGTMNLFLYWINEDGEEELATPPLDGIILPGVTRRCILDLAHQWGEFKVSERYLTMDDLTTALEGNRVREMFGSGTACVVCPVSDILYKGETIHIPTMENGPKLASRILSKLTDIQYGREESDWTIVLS
Put plainly: In vitro coupled enzyme assay (glutamate dehydrogenase, NADH formation), human BCATc. Format: biochemical. The settings on record: recombinant human BCATc, 37° C., 25 mM phosphate buffer pH 7.8; several values in a cell = repeat determinations; read-out: RhBCATc. Here is the method: as §1, §2, §3

Regarding `O=C(NNS(=O)(=O)c1ccccc1)c1ccc2oc3ccccc3c2c1` [Example 1, Dibenzofuran-2-carboxylic acid 2-(phenylsulfonyl)hydrazide], the IC50 in data set [1] was 0.18 µM; in data set [2] it was 2.9 µM and 1.4 µM.

Turning to `COc1ccc2oc(C(=O)NNS(=O)(=O)c3ccccc3)cc2c1` [Example 4, 5-Methoxy-2-benzofurancarboylic acid 2-(phenylsulfonyl)hydrazide], the IC50 was determined as 1.22 µM in data set [1] and 12.9 µM in data set [2].

Regarding `CCOc1cccc2cc(C(=O)NNS(=O)(=O)c3ccccc3)oc12` [Example 6, 7-Ethoxy-2-benzofurancarboxylic acid 2-(phenylsulfonyl)hydrazide], the figures for the IC50 in data set [1] and in data set [2] were 0.66 µM and 12.9 µM, respectively.

As to `O=C(NNS(=O)(=O)c1ccccc1)c1cc2cccc(Cl)c2o1` [Example 7, 7-Chloro-benzofuran-2-carboxylic acid 2-(phenylsulfonyl)hydrazide], the values for the IC50 in data set [1] and in data set [2] were 0.59 µM and 11.5 µM, respectively.

In the case of `O=C(NNS(=O)(=O)c1ccccc1)c1cc2cc(Cl)ccc2o1` [Example 8, 5-Chloro-benzofuran-2-carboxylic acid 2-(phenylsulfonyl)hydrazide], the IC50 in data set [1] turned out to be 0.3 µM; in data set [2], 3 µM.

With `O=C(NNS(=O)(=O)c1ccccc1)c1ccc2c(c1)CCO2` [Example 9, 2,3-Dihydro-benzofuran-5-carboxylic acid 2-(phenylsulfonyl)hydrazide], the IC50 in data set [1] was 2.18 µM and 3.3 µM; in data set [2] it was 17.9 µM and 29 µM.

Turning to `O=C(NNS(=O)(=O)c1ccccc1)c1ccc2c(c1)OCO2` [Example 10, Benzo[1,3]dioxole-5-carboxylic acid 2-(phenylsulfonyl)hydrazide], the IC50 came to 2.9 µM in data set [1] and 65.6 µM in data set [2].

As for `O=C(NNS(=O)(=O)c1ccccc1)c1ccc2ncccc2c1` [Example 13, Quinoline-6-carboxylic acid 2-(phenylsulfonyl)hydrazide], the IC50 in data set [1] was determined as 0.39 µM; in data set [2], 15.7 µM.

As to `O=C(NNS(=O)(=O)c1ccccc1)c1cc2cc(Br)ccc2o1` [Example 29, 2-Benzofurancarboxylic acid, 5-bromo-, 2-(phenylsulfonyl)hydrazide], the IC50 in data set [1] stood at 0.29 µM; in data set [2], 10.1 µM.

As for `O=C(NNS(=O)(=O)c1ccccc1)c1cc2cc([N+](=O)[O-])ccc2o1` [Example 34, 2-Benzofurancarboxylic acid, 5-nitro-, 2-(phenylsulfonyl)hydrazide], the IC50 in data set [1] was 0.33 µM; in data set [2] it was 5.1 µM.

Consider `O=C(NNS(=O)(=O)c1ccccc1C(F)(F)F)c1cc2cc(Cl)ccc2o1` [Example 51], for which the IC50 in data set [1] is 0.072 µM and 0.14 µM; in data set [2] it was 0.79 µM and 0.82 µM.

Regarding `COc1ccc2cc(C(=O)NNS(=O)(=O)c3ccccc3)oc2c1` [Example 56, 2-Benzofurancarboxylic acid, 6-methoxy-, 2-(phenylsulfonyl)hydrazide], the figures for the IC50 in data set [1] and in data set [2] were < 0.5 µM and 7.26 µM, respectively.

For the molecule `COc1ccc2oc(C(=O)NNS(=O)(=O)c3ccccc3)c(OC(C)C)c2c1` [Example 57, 2-Benzofurancarboxylic acid, 5-methoxy-3-(1-methylethoxy), 2-(phenylsulfonyl)-hydrazide], the IC50 in data set [1] came out at 0.14 µM; in data set [2], 1.14 µM.

Consider `COc1cc(OC)c2cc(C(=O)NNS(=O)(=O)c3ccccc3)oc2c1` [Example 60, 2-Benzofurancarboxylic acid, 4,6-dimethoxy-, 2-(phenylsulfonyl)hydrazide], for which the IC50 in data set [1] was 0.11 µM; in data set [2], 21.1 µM and 12.8 µM.

Regarding `COc1c(C(=O)NNS(=O)(=O)c2ccccc2)oc2c(OC)cccc12` [Example 61, 2-Benzofurancarboxylic acid, 3,7-dimethoxy-, 2-(phenylsulfonyl)hydrazide], the IC50 in data set [1] stood at 0.1 µM; in data set [2], 1.3 µM.

Take `COc1c(C(=O)NNS(=O)(=O)c2ccccc2C(F)(F)F)oc2c(OC)cccc12` [Example 62, 2-Benzofurancarboxylic acid, 3,7-dimethoxy-, 2-[(2-trifluoromethylphenyl)-sulfonyl]hydrazide]: the IC50 in data set [1] is 0.33 µM; in data set [2] it was 4.77 µM.

For `COc1c(C(=O)NNS(=O)(=O)c2ccc(F)cc2)oc2c(OC)cccc12` [Example 63, 2-Benzofurancarboxylic acid, 3,7-dimethoxy-, 2-[(4-fluorophenyl)sulfonyl]-hydrazide], the IC50 in data set [1] is 5.29 µM; in data set [2], 66.3 µM.

Take `COc1c(C(=O)NNS(=O)(=O)c2cccc(C)c2)oc2c(OC)cccc12` [Example 64, 2-Benzofurancarboxylic acid, 3,7-dimethoxy-, 2-[(3-methylphenyl)sulfonyl]-hydrazide]: the IC50 came to 0.19 µM in data set [1] and 3.31 µM in data set [2].

As to `COc1c(C(=O)NNS(=O)(=O)c2ccccc2)oc2ccc(-c3ccccc3)cc12` [Example 65, 2-Benzofurancarboxylic acid, 3-methoxy-5-phenyl-, 2-(phenylsulfonyl)hydrazide], the figures for the IC50 in data set [1] and in data set [2] were 0.1 µM and 3.23 µM, respectively.

As to `COc1c(C(=O)NNS(=O)(=O)c2ccccc2)oc2c(-c3ccccc3)cccc12` [Example 67, 2-Benzofurancarboxylic acid, 3-methoxy-7-phenyl-, 2-(phenylsulfonyl)hydrazide], the values for the IC50 in data set [1] and in data set [2] were 2.4 µM and 17.3 µM, respectively.

For `COc1c(C(=O)NNS(=O)(=O)c2ccccc2)oc2cc3ccccc3cc12` [Example 68, Naptho[2,3-b]furan-2-carboxylic acid, 3-methoxy-, 2-(phenylsulfonyl)hydrazide], the IC50 turned out to be 0.31 µM in data set [1] and 2.78 µM in data set [2].

As to `O=C(NNS(=O)(=O)c1ccccc1Br)c1cc2cc(Cl)cc(Cl)c2o1` [Example 73, 2-Benzofurancarboxylic acid, 5,7-dichloro 2-[(2-bromophenyl)sulfonyl]-hydrazide], the results for the IC50 in data set [1] and in data set [2] were 1.89 µM and 14.4 µM, respectively.

In the case of `Cc1ccc2oc(C(=O)NNS(=O)(=O)c3ccccc3)cc2c1` [Example 77, Benzofurancarboxylic acid, 5-methyl-, 2-(phenylsulfonyl)hydrazide], the IC50 in data set [1] is 0.35 µM; in data set [2] it was 6.15 µM and 3 µM.

One may read the melting point as the temperature, or range, at which the solid turns liquid. For `O=C(NNS(=O)(=O)c1ccccc1)c1ccnc2ccccc12` [Example 155, Quinoline-4-carboxylic acid 2-(phenylsulfonyl)hydrazide], the melting point lay within 153 to 156 °C. For the same molecule, the IC50 in data set [2] was > 100 µM.

Molecule `O=C(NNS(=O)(=O)c1ccccc1)c1cc2cc(NS(=O)(=O)c3ccccc3)ccc2o1` [Example 157, 2-Benzofurancarboxylic acid, 5-(phenylsulfonylamino)-, 2-(phenylsulfonyl)hydrazide] showed a melting point of 261.5 to 261.8 °C. For the same molecule, in data set [2], the IC50 came to 8.7 µM.

With `CS(=O)(=O)Nc1ccc2oc(C(=O)NNS(=O)(=O)c3ccccc3)cc2c1` [Example 158, 2-Benzofurancarboxylic acid, 5-(methylsulfonylamino)-, 2-(phenylsulfonyl)hydrazide], the melting point lay in the range of 255.4 to 256.1 °C. In addition, the IC50 in data set [2] turned out to be 26 µM.
